# According to patent publication US12440471B2, “Compositions and methods for the treatment of bronchopulmonary dysplasia (BPD) and BPD-associated pulmonary hypertension” (AyuVis Research, Inc., priority 2021, dated 2025):
# Key:
# pre-term lamb BPD model [1] = assay: Pre-term lamb BPD model: BAL fluid protein, VEGF, ICAM-1; format: in vivo; conditions: for VEGF concentrations in BAL fluid: vs vehicle after 10 days
# Experimental: A total 9 lambs were used for this study. One dose of Curosurf was given intratracheally to the PT lamb just after birth. Randomized doses of compound AVR-48 (8) (0, 0.1, 0.3, 1.0 and 3.0 mg/kg) were administered intravenously every 12 hr after the initial dose that will be given at 6 hr after delivery to n=2-4 lambs via slow intravenous injection. The beginning treatment at 6 hr post-delivery is selected to represent the human case where neonatologists attempt to allow an infant to breath without mechanical ventilation, if possible, and then begin invasive respiratory support as necessary. Whole blood was drawn from PT lambs at the time of delivery (“pre-dose”), immediately after dosing (IAD), at 15, 30, 45, and 60 min, and at 2, 4, 8, 12, 24, 48, 72, and 96 hr after the initial dose. Plasma extractions and bioanalysis of compound AVR-48 (8) were performed using a qualified bioanalysis method already developed by us. The PK parameters were calculated following both non-Compartmental Pharmacokinetic Modeling and population Pharmacokinetic Modeling as described by Roberts et al previously (Roberts, Stockmann et al. 2016). Blood was collected every 15 min for the first 90 min of postnatal life, followed by every 3 hours for 12 hours and then spaced at 1.5 d, 2.5 d, 3.5 d, 6.5 d, and 9.5 d for analysis of cytokines (Visconti, Senthamaraikannan et al. 2018) and VEGF levels (Albertine, Dahl et al. 2010). The blood samples also were analyzed for hematology and liver enzymes. After 6-7 d of mechanical ventilation, the lambs will be weaned from mechanical ventillation and weaned to non-invasive support for 3 d to ascertain longer-term outcome (Dahl, Bowen et al. 2018). Terminally, the PT lambs were euthanized after 10 days and their heart/lungs and brain were removed. Ex vivo BAL of the right cranial lobe (it has its own bronchus, pulmonary artery and vein) was done for similar analyses. Tracheal aspirates were collected according to the protocol for cytokines, BAL protein, ICAM-1 and VEGF. The spleen was collected to analyze immune cell population, using FACS.
# Bronchoalveolar lavage fluid (BALF) Analysis. Pups were sacrificed on PN14, and the trachea was cannulated with a small-caliber needle by instilling PBS endotracheally at […] pressure for 15 minutes. Two volumes of 300 μL of cold 1×PBS were instilled, gently aspirated, and pooled. Samples were centrifuged at 1000×g for 10 minutes at 4° C. The supernatant was collected, and total protein was quantified using the Pierce™ BCA Protein Assay Kit (Fisher Scientific Co, Houston, TX). The total cell count was done using the TC20 cell counter (BioRad, Hercules, CA). Similar method was followed for analyzing the protein concentration in BAL fluid collected from preterm lambs.
# pre-term lamb BPD model [2] = assay: Pre-term lamb BPD model: respiratory severity score; format: in vivo
# From the text: A unique PT lamb model, developed by Dr. Albertine (University of Utah), was used to emulate the clinical setting for PT human infants with respiratory failure related to premature birth before the lungs are mature enough to support extra-uterine life. Both the PT lamb model and PT human infants are whole-organism physiological beings that have the setting of PT birth and prolonged ventilation support with oxygen-rich gas because of respiratory failure related to lung structural and functional immaturity, including surfactant deficiency. Ventilation support with oxygen-rich gas is for days, weeks, months, and is associated with co-morbidities of the brain, liver, distal ileum, and kidney injury, and inadequate nutrition and poor postnatal growth. This PT lamb model for BPD continues to provide mechanistic insights during the evolution of BPD (Joss-Moore, Metcalfe et al. 2010), development of multiple-organ dysfunction (Albertine 2012, Abdullah, Seidel et al. 2016), and long-term structural and functional impairments (Dahl, Bowen et al. 2018).
# A dose range-finding study was conducted with the goal of treating two PT lambs with either a vehicle control or low, mid, and high doses of AVR-48 (compound 8) by twice daily intravenous infusions during 6 to 7 days of mechanical ventilation, followed by transition to noninvasive respiratory support (NIS) for 3 days, for a total of 10 days of management of these PT lambs. Compound 8 was not given during the period of noninvasive respiratory support to assess short-term persistence of effect of compound 8. The PK and PD parameters for compound 8 were also determined.
# The modified PT lamb model used 6 d to 7 d of mechanical ventilation for respiratory management to identify temporal pathogenesis of the disease. […]
# A total 9 lambs were used for this study. […] The PK parameters were calculated following both non-Compartmental Pharmacokinetic Modeling and population Pharmacokinetic Modeling as described by Roberts et al previously (Roberts, Stockmann et al. 2016). […] The blood samples also were analyzed for hematology and liver enzymes. […]
# [3] = vs vehicle treated lambs after 10 days
smiles,measurement,setting,value
CC(=O)N[C@@H]1C(Oc2ccc([N+](=O)[O-])cc2)OC(CO)C(O)C1O (stereo partly shown) [AVR-48],VEGF concentrations in BAL fluid,pre-term lamb BPD model [1]; high dose (3.0 mg/kg),no effect
same,VEGF concentrations in BAL fluid,pre-term lamb BPD model [1]; low doses,increase
same,ICAM-1 concentrations in BAL fluid,pre-term lamb BPD model [1]; [3],increase
same,total protein concentration in BAL fluid,pre-term lamb BPD model [1]; [3],decreased
same,Respiratory Severity Score (RSS),"pre-term lamb BPD model [2]; 3.0 mg/kg IV, n=4, lowest RSS",2.4
same,Respiratory Severity Score (RSS) vs placebo,"pre-term lamb BPD model [2]; 1.0 and 3.0 mg/kg IV, 2/d, 7 days",Significant improvement
same,highest efficacious dose (RSS),pre-term lamb BPD model [2]; IV twice daily,3.0 mg/kg
